Results published in patent US12077503B2, “Substituted cyclic amides and their use as herbicides” (FMC CORPORATION, priority 2015, dated 2024).

How the values were obtained:
Assay type in all cases: in vivo
[1] = tested on: ragweed (common ragweed, Ambrosia elatior); test: Test A postemergence; conditions: postemergence; for Ragweed plant response rating: 125 g ai/ha, visual injury rating on 0 to 100 scale (0 no effect, 100 complete control), approx. 10 d; for Plant response rating, Ragweed: 500 g ai/ha, 0 to 100 scale, 0 no effect, 100 complete control
Procedure, shortened: (§1)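 Visual injury, scored on a 0–100 scale relative to untreated controls, was recorded about 10 d after application. Treatments were a preemergence soil spray over planted seeds or a postemergence spray on plants at the one- to two-leaf stage, 2 to 10 cm tall, all in loam soil–sand blend in the greenhouse.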

[2] = tested on: Galium (catchweed bedstraw, Galium aparine); test: Test A postemergence; conditions: postemergence; for Galium plant response rating: 125 g ai/ha, visual injury rating on 0 to 100 scale (0 no effect, 100 complete control), approx. 10 d; for Plant response rating, Galium: 500 g ai/ha, 0 to 100 scale, 0 no effect, 100 complete control
Procedure, shortened: as §1

[3] = tested on: barnyardgrass (Echinochloa crus-galli); test: Test A postemergence
Procedure, shortened: as §1

[4] = tested on: blackgrass (Alopecurus myosuroides); test: Test A postemergence
Procedure, shortened: as §1

[5] = tested on: wheat (Triticum aestivum); test: Test A postemergence; conditions: postemergence; for Wheat plant response rating: 125 g ai/ha, visual injury rating on 0 to 100 scale (0 no effect, 100 complete control), approx. 10 d; for Plant response rating, Wheat: 500 g ai/ha, 0 to 100 scale, 0 no effect, 100 complete control
Procedure, shortened: as §1

[6] = tested on: Kochia (Kochia scoparia); test: Test A postemergence; conditions: postemergence; for Kochia plant response rating: 125 g ai/ha, visual injury rating on 0 to 100 scale (0 no effect, 100 complete control), approx. 10 d; for Plant response rating, Kochia: 500 g ai/ha, 0 to 100 scale, 0 no effect, 100 complete control
Procedure, shortened: as §1

[7] = tested on: ryegrass, Italian (Italian ryegrass, Lolium multiflorum); test: Test A postemergence; conditions: postemergence; for Ryegrass, Italian plant response rating: 125 g ai/ha, visual injury rating on 0 to 100 scale (0 no effect, 100 complete control), approx. 10 d; for Plant response rating, Ryegrass, Italian: 500 g ai/ha, 0 to 100 scale, 0 no effect, 100 complete control
Procedure, shortened: as §1

[8] = tested on: giant foxtail (Setaria faberii); test: Test A postemergence; conditions: postemergence; for Foxtail, Giant plant response rating: 125 g ai/ha, visual injury rating on 0 to 100 scale (0 no effect, 100 complete control), approx. 10 d; for Plant response rating, Foxtail, Giant: 500 g ai/ha, 0 to 100 scale, 0 no effect, 100 complete control
Procedure, shortened: as §1

[9] = tested on: pigweed (Amaranthus retroflexus); test: Test A postemergence; conditions: postemergence; for Pigweed plant response rating: 125 g ai/ha, visual injury rating on 0 to 100 scale (0 no effect, 100 complete control), approx. 10 d; for Plant response rating, Pigweed: 500 g ai/ha, 0 to 100 scale, 0 no effect, 100 complete control
Procedure, shortened: as §1

[10] = tested on: corn (Zea mays); test: Test A postemergence; conditions: postemergence; for Corn plant response rating: 125 g ai/ha, visual injury rating on 0 to 100 scale (0 no effect, 100 complete control), approx. 10 d; for Plant response rating, Corn: 500 g ai/ha, 0 to 100 scale, 0 no effect, 100 complete control
Procedure, shortened: as §1

[11] = tested on: ragweed (common ragweed, Ambrosia elatior); test: Test A preemergence; conditions: for Plant response rating, Ragweed: 125 g ai/ha, preemergence, 0 to 100 scale (0 no effect, 100 complete control); for Ragweed plant response rating (0 to 100 scale): 0 is no effect, 100 is complete control
Procedure, shortened: as §1

[12] = tested on: barnyardgrass (Echinochloa crus-galli); test: Test A preemergence; conditions: for Plant response rating, Barnyardgrass: 125 g ai/ha, preemergence, 0 to 100 scale (0 no effect, 100 complete control); for Barnyardgrass plant response rating (0 to 100 scale): 0 is no effect, 100 is complete control
Procedure, shortened: as §1

[13] = tested on: Kochia (Kochia scoparia); test: Test A preemergence; conditions: for Plant response rating, Kochia: 125 g ai/ha, preemergence, 0 to 100 scale (0 no effect, 100 complete control); for Kochia plant response rating (0 to 100 scale): 0 is no effect, 100 is complete control
Procedure, shortened: as §1

[14] = tested on: ryegrass, Italian (Italian ryegrass, Lolium multiflorum); test: Test A preemergence; conditions: for Plant response rating, Ryegrass, Italian: 125 g ai/ha, preemergence, 0 to 100 scale (0 no effect, 100 complete control); for Ryegrass, Italian plant response rating (0 to 100 scale): 0 is no effect, 100 is complete control
Procedure, shortened: as §1

[15] = tested on: giant foxtail (Setaria faberii); test: Test A preemergence; conditions: for Plant response rating, Foxtail, Giant: 125 g ai/ha, preemergence, 0 to 100 scale (0 no effect, 100 complete control); for Foxtail, Giant plant response rating (0 to 100 scale): 0 is no effect, 100 is complete control
Procedure, shortened: as §1

[16] = tested on: pigweed (Amaranthus retroflexus); test: Test A preemergence; conditions: for Plant response rating, Pigweed: 125 g ai/ha, preemergence, 0 to 100 scale (0 no effect, 100 complete control); for Pigweed plant response rating (0 to 100 scale): 0 is no effect, 100 is complete control
[17] = tested on: barnyardgrass (Echinochloa crus-galli); test: Test B flooded paddy test; conditions: Flood, 0 to 100 scale where 0 is no effect and 100 is complete control, 13 to 15 d
Procedure, shortened: (§2)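 Response scored visually against untreated controls, 0 = no effect and 100 = complete control, 13–15 d after treatment in the greenhouse. Compounds added to paddy water held 3 cm above soil surface. Treatment given at 2-leaf stage.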

[18] = tested on: rice (Oryra sativa); test: Test B flooded paddy test; conditions: Flood, 0 to 100 scale where 0 is no effect and 100 is complete control, 13 to 15 d
Procedure, shortened: as §2

[19] = tested on: sedge, umbrella (small-flower umbrella sedge, Cyperus difformis); test: Test B flooded paddy test; conditions: Flood, 0 to 100 scale where 0 is no effect and 100 is complete control, 13 to 15 d
Procedure, shortened: as §2

[20] = tested on: ducksalad (Heteranthera limosa); test: Test B flooded paddy test; conditions: Flood, 0 to 100 scale where 0 is no effect and 100 is complete control, 13 to 15 d
Procedure, shortened: as §2

[21] = 500 g ai/ha, postemergence, 0 to 100 scale, 0 no effect, 100 complete control
[22] = Postemergence, 125 g ai/ha, visual injury, 0 to 100 scale (0 no effect, 100 complete control), approx. 10 d
[23] = 125 g ai/ha, postemergence, visual injury rating on 0 to 100 scale (0 no effect, 100 complete control), approx. 10 d
[24] = Preemergence, 500 g ai/ha, visual injury approx. 10 d

Structure (SMILES): O=C1NCC(c2cccc(OCC(F)F)c2)C1C(=O)Nc1ccccc1Cl (stereo not drawn) [Compound 390]
- Ragweed plant response rating [1]: 0
- Plant response rating, Ragweed [1]: 0
- Galium plant response rating [2]: 0
- Plant response rating, Galium [2]: 0
- Plant response rating, Barnyardgrass [3, 21]: 70
- Plant response rating, Barnyardgrass [3, 22]: 50
- Plant response rating, Blackgrass [4, 21]: 0
- Plant response rating, Blackgrass [4, 22]: 0
- Wheat plant response rating [5]: 0
- Plant response rating, Wheat [5]: 0
- Kochia plant response rating [6]: 0
- Plant response rating, Kochia [6]: 0
- Ryegrass, Italian plant response rating [7]: 0
- Plant response rating, Ryegrass, Italian [7]: 10
- Foxtail, Giant plant response rating [8]: 60
- Plant response rating, Foxtail, Giant [8]: 80
- Pigweed plant response rating [9]: 0
- Plant response rating, Pigweed [9]: 20
- Corn plant response rating [10]: 0
- Plant response rating, Corn [10]: 0
- Plant response rating, Ragweed [11]: 0
- Ragweed plant response rating (0 to 100 scale) ([11]; Preemergence, 500 g ai/ha): 0
- Plant response rating, Barnyardgrass [12]: 60
- Barnyardgrass plant response rating (0 to 100 scale) ([12]; Preemergence, 500 g ai/ha): 80
- Plant response rating, Kochia [13]: 0
- Kochia plant response rating (0 to 100 scale) ([13]; Preemergence, 500 g ai/ha): 0
- Plant response rating, Ryegrass, Italian [14]: 0
- Ryegrass, Italian plant response rating (0 to 100 scale) ([14]; Preemergence, 500 g ai/ha): 0
- Plant response rating, Foxtail, Giant [15]: 80
- Foxtail, Giant plant response rating (0 to 100 scale) ([15]; Preemergence, 500 g ai/ha): 90
- Plant response rating, Pigweed [16]: 0
- Pigweed plant response rating (0 to 100 scale) ([16]; Preemergence, 500 g ai/ha): 0
- Plant response rating, Barnyardgrass ([17]; 500 g ai/ha): 50
- Plant response rating, Rice ([18]; 500 g ai/ha): 0
- Plant response rating, Sedge, Umbrella ([19]; 500 g ai/ha): 0
- Plant response rating, Ducksalad ([20]; 500 g ai/ha): 65

Structure (SMILES): O=C1NCC(c2cccc(OC(F)(F)C(F)F)c2)C1C(=O)Nc1ccccc1C(F)F (stereo not drawn) [Compound 391]
- Ragweed plant response rating [1]: 20
- Plant response rating, Ragweed [1]: 30
- Galium plant response rating [2]: 60
- Plant response rating, Galium [2]: 60
- Plant response rating, Barnyardgrass [3, 21]: 80
- Plant response rating, Barnyardgrass [3, 22]: 60
- Plant response rating, Blackgrass [4, 21]: 70
- Plant response rating, Blackgrass [4, 22]: 50
- Wheat plant response rating [5]: 0
- Plant response rating, Wheat [5]: 50
- Kochia plant response rating [6]: 0
- Plant response rating, Kochia [6]: 60
- Ryegrass, Italian plant response rating [7]: 30
- Plant response rating, Ryegrass, Italian [7]: 40
- Foxtail, Giant plant response rating [8]: 90
- Plant response rating, Foxtail, Giant [8]: 90
- Pigweed plant response rating [9]: 30
- Plant response rating, Pigweed [9]: 50
- Corn plant response rating [10]: 40
- Plant response rating, Corn [10]: 70
- Plant response rating, Ragweed [11]: 80
- Ragweed plant response rating (0 to 100 scale) ([11]; Preemergence, 500 g ai/ha): 80
- Plant response rating, Barnyardgrass [12]: 80
- Barnyardgrass plant response rating (0 to 100 scale) ([12]; Preemergence, 500 g ai/ha): 90
- Plant response rating, Kochia [13]: 30
- Kochia plant response rating (0 to 100 scale) ([13]; Preemergence, 500 g ai/ha): 50
- Plant response rating, Ryegrass, Italian [14]: 20
- Ryegrass, Italian plant response rating (0 to 100 scale) ([14]; Preemergence, 500 g ai/ha): 50
- Plant response rating, Foxtail, Giant [15]: 90
- Foxtail, Giant plant response rating (0 to 100 scale) ([15]; Preemergence, 500 g ai/ha): 90
- Plant response rating, Pigweed [16]: 70
- Pigweed plant response rating (0 to 100 scale) ([16]; Preemergence, 500 g ai/ha): 70
- Plant response rating, Barnyardgrass ([17]; 250 g ai/ha): 40
- Plant response rating, Rice ([18]; 250 g ai/ha): 0
- Plant response rating, Sedge, Umbrella ([19]; 250 g ai/ha): 0
- Plant response rating, Ducksalad ([20]; 250 g ai/ha): 100

Structure (SMILES): CN1CC(c2ccc(C(F)(F)F)c(F)c2)C(C(=O)Nc2ccc(F)cc2F)C1=O (stereo not drawn) [Compound 398]
- Ragweed plant response rating [1]: 0
- Plant response rating, Ragweed [1]: 0
- Galium plant response rating [2]: 50
- Plant response rating, Galium [2]: 60
- Barnyardgrass plant response rating [3, 23]: 90
- Plant response rating, Barnyardgrass [3, 21]: 90
- Blackgrass plant response rating [4, 23]: 40
- Plant response rating, Blackgrass [4, 21]: 60
- Wheat plant response rating [5]: 20
- Plant response rating, Wheat [5]: 70
- Kochia plant response rating [6]: 60
- Plant response rating, Kochia [6]: 80
- Ryegrass, Italian plant response rating [7]: 20
- Plant response rating, Ryegrass, Italian [7]: 50
- Foxtail, Giant plant response rating [8]: 80
- Plant response rating, Foxtail, Giant [8]: 90
- Pigweed plant response rating [9]: 50
- Plant response rating, Pigweed [9]: 60
- Corn plant response rating [10]: 60
- Plant response rating, Corn [10]: 70
- Plant response rating, Ragweed [11]: 20
- Ragweed plant response rating (0 to 100 scale, 0 is no effect, 100 is complete control) [11, 24]: 30
- Plant response rating, Barnyardgrass [12]: 90
- Barnyardgrass plant response rating (0 to 100 scale, 0 is no effect, 100 is complete control) [12, 24]: 90
- Plant response rating, Kochia [13]: 70
- Kochia plant response rating (0 to 100 scale, 0 is no effect, 100 is complete control) [13, 24]: 90
- Plant response rating, Ryegrass, Italian [14]: 30
- Ryegrass, Italian plant response rating (0 to 100 scale, 0 is no effect, 100 is complete control) [14, 24]: 70
- Plant response rating, Foxtail, Giant [15]: 90
- Foxtail, Giant plant response rating (0 to 100 scale, 0 is no effect, 100 is complete control) [15, 24]: 90
- Plant response rating, Pigweed [16]: 70
- Pigweed plant response rating (0 to 100 scale, 0 is no effect, 100 is complete control) [16, 24]: 90
- Plant response rating, Barnyardgrass ([17]; 250 g ai/ha): 60
- Plant response rating, Rice ([18]; 250 g ai/ha): 20
- Plant response rating, Sedge, Umbrella ([19]; 250 g ai/ha): 0
- Plant response rating, Ducksalad ([20]; 250 g ai/ha): 80
